pIC50, pKd: −log10 of the molar value. Where two headings read alike, the source gives them in different places.
Legend:
[1] = rabbit, in vivo
Description: Studies were performed in the Dutch-belted rabbit model using […]. Aptamers were administered at a dose level of 1.0 mg/eye, bilaterally via […] intravitreal injection. Samples from the aqueous humor, vitreous humor and plasma were taken before administration of the aptamer and a 0.25 h, 6 h, 24 h, 72 h, 7d, […], and 21d. FIGS. 22A, 22B and 22C show the vitreous humor and/or plasma concentration of each aptamer through 25 days post administration.
The results shown in FIG. 22A were obtained using noncompartmental (NCA) analysis. The volume of rabbit vitreous humor was approximately 1.0-1.5 ml.

[2] = Animal models for glomerulonephritis, restenosis, cancer and pulmonary hypertension; type: in vivo
rat PDGF = rat PDGF (Rattus norvegicus, UniProt Q05028); test: Rat PDGF binding; conditions: FIG. 14A
[3] = test system: PDGF-induced 3T3 cell proliferation; test: PDGF-induced 3T3 cell proliferation; type: cell-based; conditions: compared with anti-PDGF antibody (Upstate/Cell Signaling Solutions)
PDGF AB and BB = test: PDGF binding (Kd); parameters: species or system human
PDGF [4] = target: T1, PDGF (Homo sapiens, UniProt P01127); test: Cellular IC50 of anti-PDGF aptamer; type: cell-based
[5] = mouse, in vivo; for AUC / MRT / tmax / t½: 10 mg/kg
[6] = test system: retinal pigmented epithelial (RPE) cells; test: RPE cell migration with PDGF; type: cell-based; conditions: 100 ng/ml PDGF
Excerpt: The graphs presented in FIG. 15E and 15F show the increasing effect of PDGF concentration on RPE cell migration.

[7] = in vivo, iv
[8] = rabbit, in vivo; remark: listed apart in the source
PDGF AA isoform = PDGF AA isoform (Homo sapiens, UniProt P04085); test: PDGF AA isoform binding; conditions: FIG. 13A
PDGF [9] = target: T1, PDGF; conditions: iv

Sequence of PDGF AB and BB (P01127 82-190 limits assumed): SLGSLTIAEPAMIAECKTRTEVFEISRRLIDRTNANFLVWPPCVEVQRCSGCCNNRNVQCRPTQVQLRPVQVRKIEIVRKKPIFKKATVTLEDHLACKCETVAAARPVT
T1 sequence (P01127 82-190 limits assumed): as above
Sequence of rat PDGF (Q05028 74-182 limits assumed): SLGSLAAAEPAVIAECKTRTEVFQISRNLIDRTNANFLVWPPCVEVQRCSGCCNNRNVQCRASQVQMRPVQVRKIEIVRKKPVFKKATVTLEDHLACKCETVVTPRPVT

5′-[PEG40K]-NH2-dCdAdGdGdCfUdAfCmG-PEG-dCdGTdAmGdAmGdCdAfUfCmA-PEG-TdGdATfCfCfUmG-3T-3′ [ARC127]
Cl [1]: 0.29 mL?d^−1 | Cmax [1]: ~100 µM | Vss [1]: 1.42 mL | half life in the vitreous humor [1]: 84 h | t1/2 [1]: 92.9 h | tmax [1]: 0.25 h | efficacy in animal models [2]: efficacy in the animal models for glomerulonephritis, restenosis, cancer and pulmonary hypertension | affinity for human and rat PDGFs (rat PDGF): equivalent affinity | ability to block PDGF-induced 3T3 cell proliferation [3]: comparable to the ability of an anti-PDGF antibody | recognition of BB and AB isoforms of PDGF (PDGF AB and BB; FIGS. 13A and 13B): recognizes the BB and AB isoforms of PDGF | pKd (PDGF AB and BB; anti-PDGF aptamer, isoform not stated, read-out: dissociation constant (Kd)): 10.00 | pKd (PDGF AB and BB; read-out: Kd, PDGF AB and BB): 10.00 | pIC50 (PDGF [4]): 8.70 | bioavailability ([5]; ip): 62.5% | AUC ([5]; ip): 143.6055 µM·h | MRT ([5]; ip): 11.23 h | tmax ([5]; ip): 8 h | t½ ([5]; ip): 7.86 h | AUC ([5]; iv): 229.6868 µM·h | MRT ([5]; iv): 6.57 h | tmax ([5]; iv): 2 h | t½ ([5]; iv): 8.60 h | bioavailability ([5]; sc): 24.0% | AUC ([5]; sc): 55.0309 µM·h | MRT ([5]; sc): 16.63 h | tmax ([5]; sc): 8 h | t½ ([5]; sc): 9.18 h | blocking of RPE cell migration [6]: specifically blocks migration of retinal pigmented epithelial (RPE) cells | systemic half life [7]: 6 to 12 h | half life (intravitreal) [8]: 92.9 h | recognition of AA isoform of PDGF (PDGF AA isoform): not the AA isoform alone | duration of measurable activity in vivo (PDGF [9]): 48 h
